Each structure is given as a SMILES string.

Data on four molecules can be found in patent publication US20260365634A1, “HERBICIDAL PYRAZOLE COMPOUNDS” (SYNGENTA CROP PROTECTION AG, priority 2022, published 2026).

What all share (format): in vivo
Holding throughout (details): 250 g/ha, evaluated after 13 days

Assay [1] concerns Ipomoea hederacea (IPOHE). The assay can be described thus: Post-emergence herbicidal glasshouse test. On the procedure:
(§1) Seeds of a variety of test species are sown in standard soil in pots Amaranthus palmeri (AMAPA), Amaranthus retoflexus (AMARE), Echinochloa crus-galli (ECHCG), Ipomoea hederacea (IPOHE), Setaria faberi (SETFA). After cultivation for one day (pre-emergence) or after 8 days cultivation (post-emergence) under controlled conditions in a glasshouse (at 24/16 °C, day/night; 14 hours light; 65% humidity), the plants are sprayed with an aqueous spray solution derived from the formulation of the technical active ingredient in acetone/water (50:50) solution containing 0.5% Tween 20 (polyoxyethelyene sorbitan monolaurate, CAS RN 9005-64-5). Compounds are applied at 250 g/ha unless otherwise stated. The test plants are then grown in a glasshouse under controlled conditions in a glasshouse (at 24/16 °C, day/night; 14 hours light; 65% humidity) and watered twice daily. After 13 days for pre and post-emergence, the test is evaluated for the percentage damage caused to the plant. The biological activities are shown in the following table on a five-point scale (5=81-100%; 4=61-80%; 3=41-60%; 2=21-40%; 1=0-20%).

Assay [2] has as its system Amaranthus retoflexus (AMARE). Put plainly: Post-emergence herbicidal glasshouse test. On the procedure: as §1
Assay [3] has as its system Echinochloa crus-galli (ECHCG). Put plainly: Post-emergence herbicidal glasshouse test. The procedure:
as §1

The test system of assay [4] is Amaranthus palmeri (AMAPA). Put plainly: Post-emergence herbicidal glasshouse test. The procedure:
as §1

Assay [5] deals with Setaria faberi (SETFA). Put plainly: Post-emergence herbicidal glasshouse test. The procedure:
as §1

Assay [6] deals with Ipomoea hederacea (IPOHE). Put plainly: Pre-emergence herbicidal glasshouse test. On the procedure:
as §1

Assay [7] has as its system Amaranthus retoflexus (AMARE). The assay can be described thus: Pre-emergence herbicidal glasshouse test. On the procedure: as §1
Assay [8] concerns Echinochloa crus-galli (ECHCG). Put plainly: Pre-emergence herbicidal glasshouse test. On the procedure:
as §1

The test system of assay [9] is Amaranthus palmeri (AMAPA). Put plainly: Pre-emergence herbicidal glasshouse test. On the procedure:
as §1

Assay [10] concerns Setaria faberi (SETFA). The assay can be described thus: Pre-emergence herbicidal glasshouse test. On the procedure:
as §1

Regarding `C=CCn1nc(C(F)F)cc1Cc1ncc(Cl)cn1` [Compound 1.026], the “percentage damage caused to the plant (five-point scale), IPOHE” value (from here on “percentage damage caused … IPOHE”) in assay [1] and in [6] was 1 (0-20%) each time. Further, the “percentage damage caused to the plant (five-point scale), AMARE” value (shortened to “percentage damage caused … AMARE”) in [2] and in assay [7] was 1 (0-20%) in each case. Besides, the “percentage damage caused to the plant (five-point scale), ECHCG” value (“percentage damage caused … ECHCG” below) in assay [3] and in assay [8] was 1 (0-20%) throughout. Besides, the “percentage damage caused to the plant (five-point scale), AMAPA” value (from here on “percentage damage caused … AMAPA”) in [4] and in [9] was 1 (0-20%) throughout. The “percentage damage caused to the plant (five-point scale), SETFA” value (shortened to “percentage damage caused … SETFA”) in assay [5] and in [10] was 1 (0-20%) each time.

Turning to `Fc1cc(Cl)cnc1Cc1cc(C(F)(F)F)nn1CCC(F)(F)F` [Compound 1.018], the “percentage damage caused … IPOHE” value was 4 (61-80%) in assay [1] and 3 (41-60%) in assay [6]. Also, the “percentage damage caused … AMARE” value in assay [2] is 1 (0-20%); in assay [7], 5 (81-100%). Further, the “percentage damage caused … ECHCG” value was 4 (61-80%) in assay [3] and 5 (81-100%) in assay [8]. Also, the “percentage damage caused … AMAPA” value in assay [4] was 4 (61-80%); in [9] it was 5 (81-100%). In addition, the entries for the “percentage damage caused … SETFA” value in assay [5] and in assay [10] were 4 (61-80%) and 5 (81-100%), respectively.

For `FC(F)(F)CCCn1nc(C(F)(F)F)cc1Cc1ncc(Cl)cn1` [Compound 1.006], the “percentage damage caused … IPOHE” value in [1] and in assay [6] was 3 (41-60%) throughout. For the same molecule, the “percentage damage caused … AMARE” value in assay [2] and in assay [7] was 5 (81-100%) in each case. For the same molecule, the “percentage damage caused … ECHCG” value in assay [3] is 3 (41-60%); in assay [8], 4 (61-80%). For the same molecule, the “percentage damage caused … AMAPA” value in assay [4] and in assay [9] was 5 (81-100%) in each case. For the same molecule, the results for the “percentage damage caused … SETFA” value in [5] and in [10] were 4 (61-80%) and 5 (81-100%), respectively.

For the molecule `FC(F)(F)c1cc(Cc2ncc(Cl)cn2)n(C2CCCC2)n1` [Compound 1.028], the “percentage damage caused … IPOHE” value in [1] was 3 (41-60%); in assay [6], 1 (0-20%). Besides, the “percentage damage caused … AMARE” value is recorded as 4 (61-80%) in assay [2] and 5 (81-100%) in assay [7]. Further, the “percentage damage caused … ECHCG” value in [3] and in assay [8] was 2 (21-40%) in each case. Besides, the “percentage damage caused … AMAPA” value is reported as 2 (21-40%) in assay [4] and 5 (81-100%) in assay [9]. For the same molecule, the “percentage damage caused … SETFA” value in assay [5] was 2 (21-40%); in [10], 5 (81-100%).
